Measured values taken from US20190112357A1, “PREVENTION OF PROTEIN DISULFIDE BOND REDUCTION” (MedImmune, LLC, priority 2016, published 2019).

Assays:
[1] = test system: GR isolated from CHO cell culture; assay: mAb B reduction by pooled CHO fractions with NADPH and GSSG; assay type: biochemical, Chinese Hamster; conditions: 3 μM Cu^2+ or 100 μM ATG, overnight room temperature
Experimental: (§1) Purified mAb B was spiked into several solutions containing different combinations of the pooled fractions (PF), recombinant Trx1, GSSG, NADPH, ATG, and Cu^2+. The solutions were incubated at room temperature overnight and the amount of intact antibody remaining was determined by capillary electrophoresis according to the protocol described above. In the first set of samples, purified mAb B was spiked into the pooled fractions with, and without, NADPH.
In the second set of samples, purified mAb B was spiked into solutions containing the pooled enzymes, NADPH, GSSG, and either no inhibitor, 3 μM Cu^2+, or 100 μM ATG. […] This solution contained GR, GSSG, and NADPH, which are needed for the glutathione system.

[2] = molecular target: T1, recombinant mammalian GR/GSSG (Homo sapiens, UniProt P00390); assay: Reduction of purified mAb B by recombinant GR/GSSG, capillary electrophoresis; assay type: biochemical
T1 construct: purchased Abcam
T1 sequence (P00390 44-522): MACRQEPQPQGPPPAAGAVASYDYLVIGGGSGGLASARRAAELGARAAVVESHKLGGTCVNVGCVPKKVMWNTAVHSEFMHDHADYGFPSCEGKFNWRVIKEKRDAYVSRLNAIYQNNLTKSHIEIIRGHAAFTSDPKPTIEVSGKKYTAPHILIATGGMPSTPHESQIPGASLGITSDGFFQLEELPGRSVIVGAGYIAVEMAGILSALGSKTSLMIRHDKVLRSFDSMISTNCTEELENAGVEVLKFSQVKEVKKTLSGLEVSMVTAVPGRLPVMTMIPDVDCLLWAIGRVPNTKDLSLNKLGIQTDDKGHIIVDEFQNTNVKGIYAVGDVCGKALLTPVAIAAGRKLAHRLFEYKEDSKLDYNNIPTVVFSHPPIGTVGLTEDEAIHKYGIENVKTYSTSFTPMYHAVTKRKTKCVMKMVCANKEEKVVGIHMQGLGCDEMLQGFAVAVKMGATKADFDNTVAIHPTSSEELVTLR
Experimental: (§2) Antibody reduction in cell culture supernatant samples was measured by detecting the presence of reduced species via capillary electrophoresis using standard procedures on a 2100 Bioanalyzer system (Agilent Technologies, Santa Clara, Calif.). Samples were diluted 1-6 fold depending on titer and analyzed under non-reducing conditions following 2100 Bioanalyzer standard protocols. Supernatant samples from 3 L bioreactors were stored frozen until all samples had been acquired and were ready for analysis. Samples were thawed on ice and analyzed immediately to evaluate the amount of reduced antibody in the reactor on each day of the run.
Using the same approach with recombinant mammalian enzymes, the glutathione system was evaluated by spiking mAb B into five solutions containing: 1) no enzyme, 2) 1 mM GSSG (oxidized glutathione), 3) 0.2 μM GR (glutathione reductase), 4) 0.2 μM GR with 1 mM GSSG, and 5) 0.02 μM GR with 1 mM GSSG. […] The results indicated a minimal mAb B reduction in the solutions containing GSSG alone. This is the result of an impurity in the GSSG. […] was reduced in the solutions containing both GR and GSSG.
(§3) To confirm that the activity from a particular reductase system can translate into reduced antibody, a second method was developed to determine the impact of each reductase system on antibody reduction. The principle of the reduction assay is similar to the reductase activity assay described above. The percent of protein reduction without an inhibitor was compared to the percent of protein reduction in the presence of specific inhibitors for GR or TrxR1. In this assay, purified mAb B was spiked into solutions containing recombinant mammalian TrxR1/Trx1 or recombinant mammalian GR/GSSG and stored in an oxygen-free environment overnight. The percent of reduced mAb B antibody was evaluated using capillary electrophoresis, as set forth above.

[3] = molecular target: T2, recombinant mammalian TrxR1/Trx1 (Rattus norvegicus, UniProt O89049); assay: Reduction of purified mAb B by recombinant TrxR1/Trx1, capillary electrophoresis; assay type: biochemical, human (Trx1)
T2 construct: purchased Cayman Chemical (TrxR1); Abcam (Trx1)
T2 sequence (O89049 1-499): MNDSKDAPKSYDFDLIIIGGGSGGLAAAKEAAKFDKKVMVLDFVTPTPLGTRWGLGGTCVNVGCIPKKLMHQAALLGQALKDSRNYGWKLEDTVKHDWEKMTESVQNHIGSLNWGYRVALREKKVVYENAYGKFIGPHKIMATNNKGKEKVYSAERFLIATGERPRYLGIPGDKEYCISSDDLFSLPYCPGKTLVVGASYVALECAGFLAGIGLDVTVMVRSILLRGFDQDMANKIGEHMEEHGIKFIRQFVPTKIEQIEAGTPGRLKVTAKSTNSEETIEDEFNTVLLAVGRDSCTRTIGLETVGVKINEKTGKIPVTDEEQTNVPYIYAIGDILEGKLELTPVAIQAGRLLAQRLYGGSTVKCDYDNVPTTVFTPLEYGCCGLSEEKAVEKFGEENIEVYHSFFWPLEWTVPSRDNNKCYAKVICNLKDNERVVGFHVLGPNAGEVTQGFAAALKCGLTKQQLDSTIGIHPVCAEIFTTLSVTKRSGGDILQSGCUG
Experimental: as §2
The role of each enzymatic system in antibody reduction was evaluated by determining the conditions under which these reductase systems cause antibody reduction. Using purified recombinant mammalian reductases, the thioredoxin system was evaluated by spiking purified mAb B into five solutions containing: 1) no enzymes, 2) 1 μM TrxR1, 3) 0.1 μM TrxR1, 4) […], and 5) 0.1 μM TrxR1+2.5 μM Trx1. All samples contained 0.4 mM NADPH and were stored at room temperature overnight. Digital gel-like images were obtained from microchip-based capillary electrophoresis analysis.
as §3

[4] = test system: TrxR1 purified from CHO cell cultures; assay: mAb B reduction by pooled CHO fractions with NADPH and Trx1; assay type: biochemical, Chinese Hamster; conditions: 3 μM Cu^2+ or 100 μM ATG, overnight room temperature
Experimental: as §1
The third set of solutions contained the pooled enzymes, NADPH, Trx1, and either no inhibitor, 3 μM Cu^2+, or 100 μM ATG. […] In the final sample as a control, mAb B was spiked into a solution containing NADPH, Trx1, and GSSG.

[5] = Antibody reduction potential assay (Vacuum/GX); assay type: physicochemical; conditions: EDTA 9.5, 19, 38 mM or Cystine 4 and 8 mM
Experimental: Bioreactor samples (1 mL) were obtained daily and centrifuged at 3000-4000 RPM and the supernatant was frozen immediately at −80° C. On the day prior to the assay, the samples were removed from −80° C. storage, thawed, and placed in a vacuum chamber at room temperature overnight to induce reduction of the monoclonal antibody without the interference of oxygen. After the vacuum hold, the samples were analyzed for protein fragmentation under non-reducing conditions using a BioAnalyzer system (Agilent Technologies) or a LABCHIP® GXII system (PerkinElmer) to detect antibody fragments resulting from the breakage of the antibody's interchain disulfide bonds. […]
Samples were stored frozen until analyzed. […] After being denatured and the free thiols being capped by NEM, the samples were analyzed using a Perkin Elmer Labchip® GXII (Perkin Elmer, Waltham, Mass.) to perform size fractionation and quantification. Using the Labchip® GXII, the protein and fragments were detected by laser-induced fluorescence and translated into gel-like images (bands) and electropherograms (peaks).
Reduction potential, i.e. the potential of the molecule to be reduced under anaerobic condition, was measured by subjecting samples to vacuum analysis as described above followed addition of non-reducing sample buffer. […]

[6] = Antibody aggregation analysis (HP-SEC); assay type: physicochemical; conditions: EDTA 9.5, 19, 38 mM or Cystine 4 and 8 mM
Experimental: The percent of antibody aggregates was determined using standard size exclusion chromatography (HP-SEC) methods. An Agilent 1200 series system was used with a Tosoh Bioscience TSKgel G3000SW XL column (Tosoh Bioscience LLC, King of Prussia, Pa.) (7.8 mm×300 mm) at 1 mL/min flow rate using a mobile phase buffer of 0.1 M sodium phosphate, 0.1 M sodium sulfate, pH 6.8. The absorbance chromatography at 280 nm was used to quantify the results.

[7] = test system: GR purified from a day 14 culture of cell line B; assay: DTNB reductase activity of 2'5'-ADP column fractions from cell line B, GR; assay type: biochemical, Chinese Hamster; conditions: 100 μM 2-AAPA, fractions B1-C2, depending on the fraction
Experimental: Reductases were purified from cell samples to verify the specificity of reductase inhibitors. A day 14 culture of mAb B (IgG antibody produced by CHO cell line B CHO-K1SV) was pelleted by centrifugation, washed once with PBS and re-suspended in 50 mM tris buffer, pH 7.5. The solution was homogenized and filtered at 0.2 μm prior to loading onto a column of 2′5′-ADP Sepharose 4B resin. The reductases were eluted using a linearly increasing gradient of 0 to 0.3 mM NADP^+ in the same tris buffer (Yadav, et al., Parasitol. Int., 62:193-198, 2013). The reductase activity of the collected fractions was determined using the assay described in Example 3. Additionally, western blot analysis was used to detect TrxR1 and GR in the collected fractions.
The reductase-specific inhibitors were evaluated above using purified recombinant mammalian enzymes from rat and human. […] The added activity from the two systems was approximately equal to the total activity detected in the absence of an inhibitor for each fraction. […] That is, if the reductase inhibitors were non-specifically inhibiting both enzymatic systems, the added reductase activity would have been […] than the reductase activity detected without any added inhibitor. […] The fractions with reductase activity were pooled and further evaluated at the inhibitor concentrations assayed in the antibody reduction assay.

recombinant TrxR1/Trx1 = molecular target: T3, recombinant TrxR1/Trx1 (Rattus norvegicus, UniProt O89049); assay: DTNB reductase activity assay, recombinant TrxR1/Trx1; conditions: 2-AAPA 10 μM to 200 μM
T3 sequence (O89049 1-499): T2 sequence (O89049 1-499)
Experimental: This assay allows determination of the total reductase activity in a culture sample, as well as determination of the individual contribution made by thioredoxin reductase and glutathione reductase to the total reductase activity of the sample. In this assay, culture samples (cells+media) from 3 L bioreactors were stored frozen until the end of the run, after which the samples were centrifuged to remove the cell pellet then the resulting supernatant was diluted 20-fold into 100 mM tris buffer, pH 7.4, containing 0.4 mM NADPH, 0.15 mM oxidized glutathione, and 3 mM DTNB with the indicated concentration of specific reductase inhibitor. Addition of the enzyme specific inhibitors to the samples allowed the total reductase activity to be determined as well as the individual activity from the thioredoxin and glutathione systems. Reductase activity was monitored by spectroscopic measurement of the increase in absorbance at a wavelength of 412 nm. […] The detected increase in absorbance at this wavelength is caused by the reduction of DTNB (Arnér, ESJ, Biochim. Biophys. Acta—Gen. Subj., 1790:495-526, 2009).
Briefly, culture samples were thawed on ice. […] The absorbance at a wavelength of 412 nm was determined every 30 seconds, for 20 minutes.
Activity of the reductases was calculated as follows. The change in absorbance per minute (Δ412) for each well was determined. […]

glutathione system = assay: Reductase activity assay, day 14 culture samples, glutathione system; assay type: biochemical, Chinese Hamster; conditions: day 14, 100 μM 2-AAPA
Experimental: The total reductase activity was determined in the absence of any inhibitor. […] Thus, the difference in activity between a sample with ATG, and a sample without any inhibitor, indicates the amount of reductase activity contributed the thioredoxin system. […] Thus, the difference in reductase activity between a sample with 2-AAPA, and a sample without any inhibitor, indicates the amount of reductase activity contributed by the glutathione system. Although ATG and 2-AAPA are provided as exemplary specific inhibitors, other specific inhibitors discussed above can be employed in this assay instead of ATG and 2-AAPA.
(§4) Briefly, culture samples were thawed on ice. […] The samples were then allowed to incubate 5 minutes.
(§5) Activity of the reductases was calculated as follows. […] The activity was then calculated by the following equation: […]
The reductase activities of the thioredoxin and glutathione systems were evaluated in day 14 culture samples of the same CHO cell lines A, B, C, and D, using the previously evaluated specific inhibitors 2-AAPA and ATG at 100 μM and 0.5 μM respectively. Data in FIG. 6A were normalized to viable cell density. Cell lines A, B, and C were described in Example 6, above. Cell line D is the cell line CHO CAT-S, and is stably transfected to produce an IgG1 mAb (mAb D).

GR/GSSG = molecular target: T4, GR/GSSG (Homo sapiens, UniProt P00390); assay: DTNB reductase activity assay, recombinant GR/GSSG; assay type: biochemical; conditions: 2-AAPA at 100 μM and higher
T4 construct: purchased Abcam
T4 sequence (P00390 44-522): T1 sequence (P00390 44-522)
Experimental: as §4, §5

O=S(=O)([O-])[O-].[Cu+2] [Cu^2+, copper (II) sulfate]
antibody reduction in pooled enzymes, NADPH, GSSG [1]: completely inhibited all antibody reduction | antibody reduction caused by GR/GSSG ([2]; 3 μM Cu^2+): almost completely inhibited | antibody reduction in samples containing GR/GSSG ([2]; Cu^2+ 3-100 μM): prevented antibody reduction | intact antibody remaining in the TrxR1/Trx1 sample ([3]; 3 μM Cu^2+): 20% | antibody reduction from the thioredoxin system ([3]; Cu^2+ 3-100 μM): only partially inhibited | antibody reduction in pooled enzymes, NADPH, Trx1 [4]: marginally prevented antibody reduction

O=C(O)CN(CCN(CC(=O)O)CC(=O)O)CC(=O)O [EDTA, ethylenediamine tetraacetic acid]
reduction potential at the time of harvest of sheared mAb E material [5]: no reduction potential | aggregation of sheared mAb E material after 8 days at 2-8° C. [6]: limited the extent of mAb aggregation

CC(=O)NC(CSC(=S)Nc1ccc(NC(=S)SCC(NC(C)=O)C(=O)O)cc1)C(=O)O (stereo not shown) [2-AAPA, 2-Acetylamino-3-[4-(2-acetylamino-2-carboxyethylsulfanylthiocarbonyl-amino)phenylthiocarbamoylsulfanyl]propionic acid]
share of reductase activity from glutathione reductase, determined with the inhibitor [7]: 25-40% | effect on the reductase activity of TrxR1/Trx1 solutions (recombinant TrxR1/Trx1): minimal effect | share of total reductase activity caused by the glutathione system (glutathione system; cell line A): 70% | share of total reductase activity caused by the glutathione system (glutathione system; cell line B): 45% | share of total reductase activity caused by the glutathione system (glutathione system; cell line C): 5% | share of total reductase activity caused by the glutathione system (glutathione system; cell line D): 45% | behaviour of 2-AAPA in the antibody reduction assay ([2]; same method as for ATG): directly caused antibody reduction | GR/GSSG activity (GR/GSSG): completely inhibiting
